Measurements published in US20240050434A1, “HORMAD1 THERAPEUTICS” (Royal Cancer Hospital, priority 2020, published 2024).
“Also recorded” adds a separate entry of the source.

Experiments:
[1] = Mortlock et al., 2007; cited from earlier work
[2] = tested on: RPE1 cells expressing a doxycycline-inducible HORMAD1 construct; assay: Cell viability by cell titre glo in RPE1 cells with doxycycline-inducible HORMAD1; format: cell-based; settings: increasing doses, 5 days post drug, cell titre glo, normalised to vehicle
Experimental: RPE1 cells expressing a doxycycline-inducible HORMAD1 construct were treated with doxycycline or vehicle. […] Six days post HORMAD1 induction and 5 days post drug, cell viability was estimated using cell titre glo reagent. Surviving fractions were calculated (normalised to vehicle treated cells).
RPE1 and SUM159 cells expressing a doxycycline-inducible HORMAD1 construct were treated with doxycycline or vehicle. […] Surviving fractions were calculated (normalised to vehicle treated cells). (FIGS. 7a, b and 14c and d). Data from 3 replicas was analysed using 2-way ANOVA. 5 days post drugging, cell viability was estimated using cell titre glo reagent. Surviving fractions were calculated (normalised to vehicle treated cells). Data from 4 replicas was analysed using 2-way ANOVA.
RPE1 cells expressing a doxycycline-inducible HORMAD1 construct were treated with doxycycline or vehicle. […] 5 days post drugging, cell viability was estimated using cell titre glo reagent. Surviving fractions were calculated (normalised to vehicle treated cells).
RPE1 cells expressing a doxycycline-inducible HORMAD1 construct were treated with doxycycline or vehicle in order to induce HORMAD1 expression. […] Using cell titre glo as a measure of cell viability, surviving fractions were calculated (normalised to eribulin alone).
RPE1 cells expressing a doxycycline-inducible HORMAD1 construct were treated with doxycycline or vehicle. […] Using cell titre glo as a measure of cell viability, surviving fractions were calculated (normalised to olaparib alone).

[3] = tested on: RPE1 cells expressing a doxycycline-inducible HORMAD1 construct; assay: Clonogenic survival assay (SRB) in RPE1 cells with doxycycline-inducible HORMAD1; format: cell-based; settings: increasing doses, 7-14 days, normalised to vehicle
Experimental: Cell confluence was analysed every 6 hours for 10 days, using incucyte software. Data are from 3 biological replicates and analysed using a two-way ANOVA. […] RPE1 cells expressing a doxycycline-inducible HORMAD1 expression construct were exposed to doxycycline or vehicle (H2O) and were exposed to 20 nM of the Aurora B inhibitor, AZD1152-HQPA. Cell confluence was analysed every 6 hours for 10 days, using incucyte software. Data are from 3 biological replicates and analysed using a two-way ANOVA. […] 7-10 days post drugging, cells were fixed, stained with SRB, and colonies were counted using Cell Profiler. […] 10 days post drugging, cells were fixed, stained with SRB, and colonies were counted using Cell Profiler. […] RPE1 cells expressing a doxycycline-inducible HORMAD1 expression construct were exposed to doxycycline or vehicle (H2O) and to increasing doses of the Aurora B inhibitor, AZD1152-HQPA. 7-10 days post drugging, cells were fixed, stained with SRB, and colonies were counted using Cell Profiler. […] SUM159 cells expressing a doxycycline-inducible HORMAD1 expression construct were exposed to doxycycline or vehicle (H2O) and to increasing doses of the Aurora B inhibitor, AZD1152-HQPA. 10 days post drugging, cells were fixed, stained with SRB, and colonies were counted using Cell Profiler.
RPE1 cells were reverse transfected with BUB1 or control siRNA particles for 3 days. Cell lysates were collected, and analysed by western blotting using anti-BUB1 and anti-β-ACTIN antibodies. […] RPE1 cells expressing a doxycycline-inducible HORMAD1 expression construct were exposed to doxycycline or vehicle, and were reverse transfected with BUB1 or control siRNA particles. 5 days post transfection, cellular viability was estimated using cell titer glo reagent and surviving fractions were calculated relative to DMSO treated cells. […] Statistical significance estimated using a one-way ANOVA with Sidak's correction. C. Western blot illustrating expression of HORMAD1 in wild-type RPE1 cells and RPE1 cells depleted of BUB1 using CRISPR. WT and BUB1 depleted RPE1 cells expressing a doxycycline-inducible HORMAD1 expression construct, were exposed to doxycycline or vehicle for 3 days. Cell lysates were collected, and analysed by SDS-PAGE and western blotting using anti-HORMAD1, anti-H3 and anti-BUB1 antibodies. […] WT and BUB1 depleted RPE1 cells expressing a doxycycline-inducible HORMAD1 expression construct were exposed to doxycycline or vehicle. 7-10 days post doxycycline induction, cells were fixed, stained with SRB, and cellular viability was estimated using SRB absorbance readings. […] Statistical significance estimated using a one-way ANOVA with Sidak's correction. […] RPE1 expressing a doxycycline-inducible HORMAD1 expression construct, were exposed to doxycycline or vehicle. […] Cells were fixed, stained with SRB, and cellular viability was estimated using SRB absorbance readings. […] Cells were imaged every 4 hours, and confluence was continually measured using incucyte software. Growth curves were plotted, based on confluence. Data represent 3 biological replicas. […] Patient-derived organoids models were grown in culture and cell lysates collected and analysed using SDS-PAGE and western blotting using anti-HORMAD1 and anti-β-ACTIN antibodies. […] Cellular viability was estimated using cell titer glo reagent and surviving fractions were calculated relative to DMSO treated cells. […] Left, dose response curves for each organoid.

AURORA A kinase = target: T1, AURORA A kinase (Homo sapiens, UniProt O14965); settings: Shimomura et al., 2010; cited from earlier work
T1 sequence (O14965 1-403): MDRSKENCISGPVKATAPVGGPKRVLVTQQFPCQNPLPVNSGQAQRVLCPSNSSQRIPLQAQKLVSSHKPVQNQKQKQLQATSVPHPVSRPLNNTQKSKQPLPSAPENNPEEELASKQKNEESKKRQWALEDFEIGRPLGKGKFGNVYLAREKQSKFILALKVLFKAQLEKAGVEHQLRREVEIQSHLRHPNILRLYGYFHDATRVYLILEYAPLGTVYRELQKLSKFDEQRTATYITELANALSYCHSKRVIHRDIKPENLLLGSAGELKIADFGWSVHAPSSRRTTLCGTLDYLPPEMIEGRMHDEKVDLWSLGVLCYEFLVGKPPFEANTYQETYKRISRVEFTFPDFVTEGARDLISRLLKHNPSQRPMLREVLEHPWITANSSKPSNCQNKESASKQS

[4] = tested on: HeLa cells transfected with siRNA targeting HORMAD1; settings: 300 nM nocodazole 6 hours, then 100 nM reversine
Experimental: (§1) HeLa cells were transfected with two individual siRNA particles targeting HORMAD1 as well as a non-targeting control, grown for three days at which point cell lysates were generated and analysed SDS-PAGE and western blotting using anti-HORMAD1 and anti-H3 antibodies. […] HeLa cells were transfected with two individual siRNA particles targeting HORMAD1 as well as a non-targeting control, grown for three days at which point cells were exposed to 300 nM nocodazole and filmed every 4 minutes using time-lapse microscopy. The time individual cells remained arrested in mitosis was quantified and presented as the % of cells arrested in mitosis at each time point. Data reflects a total of 125 cells from 3 biological repeats and was analysed using Mantel-Cox test with Bonferonni correction. C. […] MDA-MB-436 cells expressing two individual, doxycycline-inducible, shRNA particles targeting HORMAD1 as well as a non-targeting control were grown for three days in the presence of doxycycline at which point cell lysates were generated and analysed SDS-PAGE and western blotting using anti-HORMAD1 and anti-6-ACTIN antibodies. […] MDA-MB-436 cells expressing two individual, doxycycline-inducible, shRNA particles targeting HORMAD1 as well as a non-targeting control were grown for three days in the presence of doxycycline at which point cells were exposed to 300 nM nocodazole and filmed every 4 minutes using time-lapse microscopy. The time individual cells remained arrested in mitosis was quantified and presented as the % of cells arrested in mitosis at each time point. Data reflects a total of 50 cells from 2 biological repeats and was analysed using Mantel-Cox test with Bonferonni correction. […] The time individual cells remained arrested in mitosis was quantified and presented as the % of cells arrested in mitosis at each time point. […] The time individual cells remained arrested in mitosis was quantified and presented as the % of cells arrested in mitosis at each time point.

[5] = tested on: MDA-MB-436 cells expressing shRNA targeting HORMAD1; settings: 300 nM nocodazole 6 hours, then 200 nM reversine
Experimental: as §1

[6] = tested on: SUM159 cells induced to express HORMAD1; settings: 300 nM nocodazole 6 hours, then 100 nM reversine
Experimental: as §1

[7] = tested on: MCF10A cells expressing a doxycycline-inducible HORMAD1 cDNA expression construct; settings: 300 nM nocodazole 6 hours, then 100 nM reversine
Experimental: as §1

[8] = tested on: RPE1 cells expressing a doxycycline-inducible HORMAD1 expression construct; assay: Mitotic slippage by time-lapse microscopy in nocodazole-arrested RPE1 cells; format: cell-based
Experimental: A. Diagram of experimental outline. Cells were exposed to doxycycline for 3 days, arrested in mitosis using 300 nM nocodazole or 100 nM Paclitaxel. Mitotic cells were filmed every 4 minutes for 1200 minutes, and the time cells remained arrested in mitosis before exiting via mitotic slippage was assessed. […] RPE1 cells expressing a doxycycline-inducible HORMAD1 cDNA expression construct were exposed to doxycycline or vehicle (H2O) for three days at which point cells were exposed to 300 nM nocodazole and filmed every 4 minutes using time-lapse microscopy. The time individual cells remained arrested in mitosis was quantified and presented as the % of cells arrested in mitosis at each time point. Data reflects a total of 125 cells from 3 biological repeats and was analysed using Mantel-Cox test. C. […] The time individual cells remained arrested in mitosis was quantified and presented as the % of cells arrested in mitosis at each time point. Data reflects a total of 125 cells from 3 biological repeats and was analysed using Mantel-Cox test. […] H1299 cells expressing two individual, doxycycline-inducible, shRNA particles targeting HORMAD1 as well as a non-targeting control were grown for three days in the presence of doxycycline at which point cell lysates were generated and analysed by SDS-PAGE and western blotting using anti-HORMAD1 and anti-β-ACTIN antibodies. […] The time individual cells remained arrested in mitosis was quantified and presented as the % of cells arrested in mitosis at each time point. Data reflects a total of 90 cells from 3 biological repeats and was analysed using Mantel-Cox test with Bonferonni correction. […] Mitotic cells were filmed every 2 minutes for 400 minutes, and the time taken before cells exited mitosis via mitotic slippage was assessed. […] The time individual cells remained arrested in mitosis was quantified and presented as the % of cells arrested in mitosis at each time point. […] The time individual cells remained arrested in mitosis was quantified and presented as the % of cells arrested in mitosis at each time point. […]

[9] = tested on: H1299 cells expressing shRNA targeting HORMAD1; settings: 300 nM nocodazole 6 hours, then 200 nM reversine
Experimental: A. Diagram of experimental outline. Cells were exposed to doxycycline for 3 days, arrested in mitosis using 300 nM nocodazole or 100 nM Paclitaxel. Mitotic cells were filmed every 4 minutes for 1200 minutes, and the time cells remained arrested in mitosis before exiting via mitotic slippage was assessed. […] RPE1 cells expressing a doxycycline-inducible HORMAD1 cDNA expression construct were exposed to doxycycline or vehicle (H2O) for three days at which point cells were exposed to 300 nM nocodazole and filmed every 4 minutes using time-lapse microscopy. The time individual cells remained arrested in mitosis was quantified and presented as the % of cells arrested in mitosis at each time point. Data reflects a total of 125 cells from 3 biological repeats and was analysed using Mantel-Cox test. C. […] The time individual cells remained arrested in mitosis was quantified and presented as the % of cells arrested in mitosis at each time point. Data reflects a total of 125 cells from 3 biological repeats and was analysed using Mantel-Cox test. […] H1299 cells expressing two individual, doxycycline-inducible, shRNA particles targeting HORMAD1 as well as a non-targeting control were grown for three days in the presence of doxycycline at which point cell lysates were generated and analysed by SDS-PAGE and western blotting using anti-HORMAD1 and anti-β-ACTIN antibodies. […]

## CCN(CCCOc1ccc2c(Nc3cc(CC(=O)Nc4cccc(F)c4)n[nH]3)ncnc2c1)CCOP(=O)(O)O [AZD1152]
[1]
  conversion of prodrug in plasma: rapidly converted into AZD1152-HQPA

## O=C(O)[C@]1(Cc2cccc(Nc3nccs3)n2)CC[C@@H](Oc2cccc(Cl)c2F)CC1 [MK-5108]
[2]
  growth inhibition (surviving fraction) of HORMAD1 expressing versus HORMAD1-negative RPE1 cells: more effectively inhibited
[3]
  clonogenic survival / sensitivity of HORMAD1 expressing versus HORMAD1-negative RPE1 cells: confirmed these findings; also recorded: increased Aurora inhibitor sensitivity
AURORA A kinase
  concentrations inhibiting AURORA A kinase activity: sub-nanomolar
  specificity over AURORA B and C: ~200 fold

## c1nc2nc(Nc3ccc(N4CCOCC4)cc3)nc(NC3CCCCC3)c2[nH]1 [reversine, 2-(4-morpholinoanilino)-6-cyclohexylaminopurine]
[4]
  mitotic slippage in HeLa cells depleted of HORMAD1: delayed mitotic slippage
[5]
  mitotic slippage in MDA-MB-436 cells depleted of HORMAD1: delayed mitotic slippage
[6]
  mitotic slippage in SUM159 cells induced to express HORMAD1: premature mitotic slippage
[7]
  mitotic slippage in MCF10A cells induced to express HORMAD1: premature mitotic slippage
[8]; 300 nM nocodazole 6 hours, then 100 nM reversine
  time before slippage in RPE1 cells expressing only the HORMA domain: reduced
[8]; 300 nM nocodazole arrest, then 100-200 nM reversine, 50 nM BOS172722 or AZD1152-HQPA
  mitotic slippage / mitotic exit in HORMAD1 induced RPE1 cells: rapid mitotic exit; also recorded: premature mitotic slippage
[9]
  mitotic slippage in H1299 cells depleted of HORMAD1: delayed mitotic slippage

## AZ-3146
[3]
  clonogenic survival / sensitivity of HORMAD1 expressing versus HORMAD1-negative RPE1 cells: confirmed these findings; also recorded: increased MPSI inhibitor sensitivity
